Results reported in ChEMBL document CHEMBL5321279 (J Med Chem, 2023).
Activity calls are given as the source filed them. The rule behind the calls is not given here.

Experiments:
[1] = (§1) Cytotoxicity against stimulated human PBMC cells assessed as reduction in cell growth measured after 5 days by CellTiter-Glo assay; format: toxicity, cell-based; details: stimulated PBMC, time 5 day
[2] = (§2) Cytotoxicity against human PC-3 cells assessed as reduction in cell growth measured after 5 days by CellTiter-Glo assay; format: toxicity, cell-based; details: PC-3 cells, time 5 day
[3] = Prodrug conversion in cynomolgus monkey assessed as Nucleotide triphosphate metabolite formation in lung at 20 mg/kg, iv measured upto 24 hrs by LC-MS/MS analysis; format: ADME, organism-based, Macaca fascicularis; details: in vivo
[4] = AUC(0 to 24 hrs) in rat at 1 mg/kg, iv measured upto 24 hrs by LC-MS/MS analysis; format: ADME, organism-based; parameters: dose 1 mg/kg, time < 24 hrs, route iv; details: in vivo
[5] = AUC(0 to 24 hrs) in cynomolgus monkey at 5 mg/kg, po measured upto 24 hrs by LC-MS/MS analysis; format: ADME, organism-based, Macaca fascicularis; parameters: dose 5 mg/kg, time < 24 hrs, route po; details: in vivo
SARS-CoV-2 [6] = assay: Antiviral activity against SARS-CoV-2 infected in African green monkey assessed as reduction in genomic RNA load in BALF at 60 to 120 mg/kg, po qd administered for 6 days starting from 8 hrs post infection by RT-qPCR analysis; format: functional, organism-based; details: Severe acute respiratory syndrome coronavirus 2, dose lower 60.0 mg/kg, dose upper […], time 6.0 day
[7] = Aqueous stability of the compound assessed as compound remaining at pH 7 measured at 24 hrs by UPLC analysis; format: physicochemical; details: aqueous solution, read-out: Stability
[8] = AUC(0 to 24 hrs) in African green monkey assessed as prodrug conversion by measuring (2R,3R,4S,5R)-2-(4-aminopyrrolo[2,1-f][1,2,4]triazin-7-yl)-3,4-dihydroxy-5-(hydroxymethyl)tetrahydrofuran-2-carbonitrile at […], po measured upto 24 hrs by LC-MS/MS analysis; format: ADME, organism-based; details: chlorocebus sabaeus, in vivo
[9] = Prodrug conversion in African green monkey assessed as Nucleotide triphosphate metabolite formation in lung at 60 mg/kg, po measured upto 24 hrs by LC-MS/MS analysis; format: ADME, organism-based; details: chlorocebus aethiops, in vivo
[10] = Half life in rat assessed as prodrug conversion by measuring (2R,3R,4S,5R)-2-(4-aminopyrrolo[2,1-f][1,2,4]triazin-7-yl)-3,4-dihydroxy-5-(hydroxymethyl)tetrahydrofuran-2-carbonitrile at 6 mg/kg, po measured upto 24 hrs by LC-MS/MS analysis; format: ADME, organism-based; details: in vivo
PBMC = assay: as §1; format: toxicity, cell-based; details: pbmc, 120 h, time 5 day
[11] = AUC(0 to 24 hrs) in dog assessed as prodrug conversion by measuring (2R,3R,4S,5R)-2-(4-aminopyrrolo[2,1-f][1,2,4]triazin-7-yl)-3,4-dihydroxy-5-(hydroxymethyl)tetrahydrofuran-2-carbonitrile at […], po measured upto 24 hrs by LC-MS/MS analysis; format: ADME, organism-based, Canis lupus familiaris; details: in vivo
[12] = Half life in African green monkey assessed as prodrug conversion by measuring (2R,3R,4S,5R)-2-(4-aminopyrrolo[2,1-f][1,2,4]triazin-7-yl)-3,4-dihydroxy-5-(hydroxymethyl)tetrahydrofuran-2-carbonitrile at 60 mg/kg, po measured upto 24 hrs by LC-MS/MS analysis; format: ADME, organism-based; details: chlorocebus sabaeus, in vivo
CES2 (cocaine esterase) = target: T1, CES2 (cocaine esterase) (Homo sapiens, UniProt O00748); assay: Stability of compound assessed as human recombinant CES2-mediated compound hydrolysis by measuring half life at pH 7.4 using oseltamivir as substrate measured upto 120 mins by LC-MS/MS analysis; format: ADME; details: recombinant CES2, pH 7.4, probe oseltamivir
T1 sequence (O00748 whole entry): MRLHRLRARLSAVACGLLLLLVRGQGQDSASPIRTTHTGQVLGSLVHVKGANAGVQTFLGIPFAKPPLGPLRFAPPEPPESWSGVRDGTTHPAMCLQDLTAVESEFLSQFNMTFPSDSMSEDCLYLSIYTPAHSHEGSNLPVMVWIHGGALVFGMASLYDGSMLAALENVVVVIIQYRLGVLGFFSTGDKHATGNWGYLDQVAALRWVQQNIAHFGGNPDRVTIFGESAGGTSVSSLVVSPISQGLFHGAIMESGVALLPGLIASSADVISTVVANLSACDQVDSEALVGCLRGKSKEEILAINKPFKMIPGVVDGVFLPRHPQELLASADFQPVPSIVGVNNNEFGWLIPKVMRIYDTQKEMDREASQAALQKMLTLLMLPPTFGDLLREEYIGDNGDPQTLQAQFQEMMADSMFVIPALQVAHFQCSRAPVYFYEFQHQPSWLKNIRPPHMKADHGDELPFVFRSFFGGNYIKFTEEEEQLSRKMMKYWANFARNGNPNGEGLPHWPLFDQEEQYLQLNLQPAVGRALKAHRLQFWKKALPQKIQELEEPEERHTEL

[13] = Cmax in African green monkey assessed as prodrug conversion by measuring (2R,3R,4S,5R)-2-(4-aminopyrrolo[2,1-f][1,2,4]triazin-7-yl)-3,4-dihydroxy-5-(hydroxymethyl)tetrahydrofuran-2-carbonitrile at 86.5 mg/kg, po measured upto 24 hrs by LC-MS/MS analysis; format: ADME, organism-based; parameters: dose 86.5 mg/kg, time < 24 hrs, route po; details: chlorocebus sabaeus, in vivo
PC-3 = assay: as §2; format: toxicity, cell-based; details: pc-3, 120 h, time 5 day
[14] = Aqueous stability of the compound assessed as compound remaining at pH 2 measured at 24 hrs by UPLC analysis; format: physicochemical; details: aqueous solution, read-out: Stability
SARS-CoV-2 [15] = assay: Antiviral activity against SARS-CoV-2 infected in African green monkey assessed as reduction in viral genomic RNA load in throat swabs at 60 to 120 mg/kg, po qd administered for 2 days starting from 8 hrs post infection by RT-qPCR analysis; format: functional, organism-based; details: Severe acute respiratory syndrome coronavirus 2, dose lower 60.0 mg/kg, dose upper […], time 2.0 day
[16] = Oral bioavailability in cynomolgus monkey assessed as prodrug conversion by measuring (2R,3R,4S,5R)-2-(4-aminopyrrolo[2,1-f][1,2,4]triazin-7-yl)-3,4-dihydroxy-5-(hydroxymethyl)tetrahydrofuran-2-carbonitrile at 11.7 mg/kg administered in solid form measured upto 24 hrs by LC-MS/MS analysis; format: ADME, organism-based, Macaca fascicularis; details: in vivo

CCC(CC)COC(=O)[C@H](C)N[P@](=O)(OC[C@H]1O[C@@](C#N)(c2ccc3c(N)ncnn23)[C@H](O)[C@@H]1O)Oc1ccccc1
CC50 at 120 h [1]: 14.8 µM
CC50 at 120 h [2]: 1.4 µM

N#C[C@@]1(c2ccc3c(N)ncnn23)O[C@H](CO)[C@@H](O)[C@H]1O [GS-441524]
Drug metabolism [3]: 0.41 nmol/g
AUC [4]: 2.5 µM·h
AUC [5]: 1.67 µM·h

CC(C)C(=O)OC[C@H]1O[C@@](C#N)(c2ccc3c(N)ncnn23)[C@H](O)[C@@H]1O [OBELDESIVIR]
Activity (SARS-CoV-2 [6]): Active
remaining at 24 h [7]: ≥ 96%
AUC [8]: 26.6 µM·h
Drug metabolism [9]: 0.31 nmol/g
t1/2 [10]: 2.02 h
CC50 (PBMC): > 100 µM
AUC [11]: 202 µM·h
t1/2 [12]: 2.9 h
half-life (CES2 (cocaine esterase)): < 2 min
Cmax [13]: 19.6 µM
CC50 (PC-3): > 100 µM
remaining at 24 h [14]: ≥ 94%
Activity (SARS-CoV-2 [15]): Active
F [16]: 18%
